pIC50: −log10 of the molar value. Several values for one entry are separate records, joined by “and”; a condition that tells them apart may be missing. Identical values can stand only once. Like-named read-outs stand apart in the source and are kept apart here. Square brackets hold non-standard residues; d marks the D form. Peptide text beside a SMILES is read from it. * marks the point of attachment. N(Me)CH2CH2Ph = CN(CCc1ccccc1)*; Tic = O=C(O)[C@@H]1Cc2ccccc2CN1; Cha = N[C@@H](CC1CCCCC1)C(=O)O; X4 = OCCOCCN(CCc1ccccc1)*; Nle = CCCC[C@H](N)C(=O)O; X2 = OCCOCCN(Cc1ccccc1)*; X6 = OCCN(CCc1ccccc1)*
Assays:
[1] = target: DR4Dw14 (DRA1*0101 DRB1*0404) (Homo sapiens, UniProt P01903+P01911, A100R/A169T/F76Y/I96L/K127E/L162R/M171V/N62H/P40V/Q125Y/R42H/S133A/S149N/S66Y/V209L/W38E); experiment: Competitive binding to MHC-II protein DR4Dw14
Method: (§1) Interaction mixtures lacking the peptidomimetic compound and both peptide mimetic compound and MHC-II were used as positive and negative controls, respectively. All interaction mixtures were set up in duplicates and were incubated for 16 hours at room temperature.
(§2) After washing with PBS, 60 μl of the MHC-II-compound interaction mixtures were transferred from the interaction plate to the appropriate wells of the capture plate and incubated for 2 h at 4° C. The wells were washed six times with 200 μl/well of cooled (4 to 8° C.) 1×DELFIA wash (Wallac-ADL-GmbH, Freiburg), incubated with 100 μl of cooled Europium-streptavidin conjugate (Wallac-ADL-GmbH, Freiburg; diluted 1/1000 with DELFIA assay buffer) for 30 minutes at 4° C., again washed six times with cooled 1×DELFIA wash and, finally, incubated with 200 μl cooled DELFIA enhancement solution (Wallac-ADL-GmbH, Freiburg) for one hour at room temperature before reading the time-resolved europium fluorescence at λex Eu^3+: 340 nm and λem Eu^3+: 613 (615) nm (Wallac Victor^2 1420 Multilabel Counter, Wallac-ADL-GmbH, Freiburg).

[2] = Stability of compounds in human blood plasma; assay type: in vitro ADME
Method: (§3) The stability of the peptidomimetic compounds was determined in rat (Charles River Laboratories, Sulzfeld), mouse (Charles River Laboratories, Sulzfeld) and human (Bayerisches Rotes Kreuz, München) blood plasma (E. R. Garrett and M. R. Gardner, J Pharmaceutical Sciences 71 (1982) 14-25).
(§4) Compound stock solutions were diluted into blood plasma to give a final compound concentration of 5 μM and the mixtures were incubated at 37° C. At 0, 6 and 24 hours 1 ml samples were drawn and the plasma proteins were precipitated by the addition of 3 ml acetonitrile p.a. and whirlmixing. The precipitate was pelleted by centrifugation at 2000 g for 5 minutes. The supernatant was evaporated off to dryness and the residue was reconstituted in 400 μl 50% acetonitrile, 0.1% TFA in water.
(§5) PBS controls were prepared for unstable compounds accordingly.

[3] = target: Cathepsin B1 (EC 3.4.22.1 from bovine spleen) (Bos taurus, UniProt P07688); settings: for Stability (Arbitrary units) Cath B 4 h: Cathepsin B
[4] = target: DR1 (DRA1*0101 DRB1*0101) (Homo sapiens, UniProt P01903+P01911, A100R/D57E/F55L/F60I/F76Y/I96L/L162R/M171V/P40L/Q125E/R42F/V115G/Y59C); experiment: Competitive binding to MHC-II protein DR1; settings: Protein binding IC50 (nM) 0101, 0101
Method: as §1, §2

[5] = Stability of compounds in mouse blood plasma; assay type: in vitro ADME
Method: as §3, §4, §5

[6] = Stability of compounds in rat blood plasma; assay type: in vitro ADME
Method: as §3, §4, §5

[7] = target: Cathepsin D (EC 3.4.23.5 from bovine spleen) (Bos taurus, UniProt P80209)
Method: The stability of the peptidomimetic compounds towards lysosomal degradation was examined by incubation with Cathepsin B1 (EC 3.4.22.1 from bovine spleen; Sigma-Aldrich, Taufkirchen; dissolved at 10000 U/l in ddH2O) and D (EC 3.4.23.5 from bovine spleen; Sigma-Aldrich, Taufkirchen; dissolved at 10000 U/l in ddH2O) for four hours at 37° C. using a compound concentration of 50 μM and an enzyme/substrate ratio of 0.4 U/μmol. The samples contained 25 ppm 4-isopropyl benzyl alcohol (IPBA; Sigma-Aldrich, Taufkirchen) as internal standard.
Assay buffer was prepared by adding 35 μl of a 1% IPBA in DMSO solution and 28 μl of a 10000 U/l Cathepsin B1 or Cathepsin D stock solution to 14 ml of 100 mM sodium acetate, 1 mM EDTA, 1 mM DTT, pH 5.00 or 100 mM sodium acetate, pH 4.50, respectively. 8.8 μl of a 5 mM (or 4.4 μl of a 10 mM) compound stock solution (in 10% DMSO/water) were placed into a 1.5 ml Eppendorf tube. The reaction was started by adding 875 μl fully supplemented assay buffer to each tube, whirlmixing and incubation at 37° C. At 0 and 4 hours 400 μl samples were taken and the enzyme was inactivated by addition of 40 μl […] TFA aq. The samples were kept frozen at −20° C. until analysis by RP-HPLC (200 μl injection volume; Nucleosil 100-5 C18, 12.5×4.6 cm; Gradient: 20-50% acetonitrile in 30 min).
Compounds co-eluting with the internal standard during RP-HPLC analysis were tested without the standard as Example 16.

[8] = system: T-cell proliferation, DR14-LN; settings: for Immunsupressive assays DR14-LN (Max) % Inhibition: maximal inhibition; for pIC50: read-out: Immunsupressive assays DR14-LN (IC50)
[9] = target: DR4Dw4 (DRA1*0101 DRB1*0401) (Homo sapiens, UniProt P01903+P01911, A100K/A169T/F76Y/I96L/K127E/L162R/M171V/N62H/P40V/Q125Y/R42H/S133A/S149N/S66Y/V115G/V209L/W38E); experiment: Competitive binding to MHC-II protein DR4Dw4
Method: as §1, §2

[10] = 0404, read-out: Protein binding IC50 (nM) 0404
[11] = within 4 hours, 37° C., enzyme activity control

CSCC[C@H](NC(=O)[C@@H]1Cc2ccccc2CN1C(=O)[C@H](CCCNC(=N)N)NC(=O)[C@H](CC1CCCCC1)NC(C)=O)C(=O)N(C)CCc1ccccc1 [Compound P84, Ac-Cha-Arg-Tic-Met-N(Me)CH2CH2Ph] (Ac-[Cha]R[Tic]M-{N(Me)CH2CH2Ph})
IC50 [1, 10]: 14000 nM
Stability (Arbitrary units) Human 6 h [2]: 131 Arbitrary units
Stability (Arbitrary units) Human 24 h [2]: 131 Arbitrary units
Stability (Arbitrary units) Cath B 4 h [3]: 69 Arbitrary units
IC50 [4]: 900 nM
Stability (Arbitrary units) Mouse 6 h [5]: 111 Arbitrary units
Stability (Arbitrary units) Mouse 24 h [5]: 53 Arbitrary units
Stability (Arbitrary units) Rat 6 h [6]: 104 Arbitrary units
Stability (Arbitrary units) Rat 24 h [6]: 99 Arbitrary units
Stability (Arbitrary units) Cath D 4 h [7]: 101 Arbitrary units

CCCC[C@H](NC(=O)[C@@H]1Cc2ccccc2CN1C(=O)[C@H](CCCNC(=N)N)NC(=O)[C@H](CC1CCCCC1)NC(C)=O)C(=O)N(C)CCc1ccccc1 [Compound P83, Ac-Cha-Arg-Tic-Nle-N(Me)CH2CH2Ph] (Ac-[Cha]R[Tic][Nle]-{N(Me)CH2CH2Ph})
IC50 [1, 10]: 11000 nM
Immunsupressive assays DR14-LN (Max) % Inhibition [8]: 100%
pIC50 [8]: 4.89
Stability (Arbitrary units) Cath B 4 h [3]: 100 Arbitrary units
IC50 [4]: 1300 nM
pIC50 [9]: 4.62
Stability (Arbitrary units) Mouse 6 h [5]: 93 Arbitrary units
Stability (Arbitrary units) Mouse 24 h [5]: 58 Arbitrary units
Stability (Arbitrary units) Rat 6 h [6]: 69 Arbitrary units
Stability (Arbitrary units) Rat 24 h [6]: 85 Arbitrary units
Stability (Arbitrary units) Cath D 4 h [7]: 98 Arbitrary units

CSCC[C@H](NC(=O)[C@H](C)NC(=O)[C@H](CCCN=C(N)N)NC(=O)[C@H](CC1CCCCC1)NC(C)=O)C(=O)N[C@@H](C)C(=O)N[C@@H](CO)C(=O)N[C@@H](CC(C)C)C(N)=O [Compound P3, Ac-Cha-RAMASL-NH2, reference compound] (Ac-[Cha]RAMASL-NH2)
degradation by Cathepsin B1 [3, 11]: completely degraded

CSCC[C@H](NC(=O)[C@@H]1Cc2ccccc2CN1C(=O)[C@H](CCCNC(=N)N)NC(=O)[C@H](CC1CCCCC1)NC(C)=O)C(=O)N(CCO)CCc1ccccc1 [Compound P85, Ac-Cha-Arg-Tic-Met-N(CH2CH2OH)CH2CH2Ph] (Ac-[Cha]R[Tic]M-X6)
IC50 [1, 10]: 31000 nM
Stability (Arbitrary units) Human 24 h [2]: 129 Arbitrary units
Stability (Arbitrary units) Cath B 4 h [3]: 108 Arbitrary units
IC50 [4]: 1800 nM
pIC50 [9]: 4.89
Stability (Arbitrary units) Mouse 6 h [5]: 98 Arbitrary units
Stability (Arbitrary units) Mouse 24 h [5]: 57 Arbitrary units
Stability (Arbitrary units) Rat 6 h [6]: 111 Arbitrary units
Stability (Arbitrary units) Rat 24 h [6]: 71 Arbitrary units
Stability (Arbitrary units) Cath D 4 h [7]: 104 Arbitrary units

CSCC[C@H](NC(=O)[C@@H]1Cc2ccccc2CN1C(=O)[C@H](CCCNC(=N)N)NC(=O)[C@H](CC1CCCCC1)NC(C)=O)C(=O)N(CCOCCO)CCc1ccccc1 [Compound P96, Ac-Cha-Arg-Tic-Met-N(CH2CH2Ph)CH2CH2OCH2CH2OH] (Ac-[Cha]R[Tic]M-X4)
IC50 ([1]; Protein binding IC50 (nM) 0404, 0404): 7400 nM
Stability (Arbitrary units) Human 6 h ([2]; human plasma, 6 h): 117 Arbitrary units
Stability (Arbitrary units) Human 24 h ([2]; human plasma, 24 h): 64 Arbitrary units
Stability (Arbitrary units) Cath B 4 h [3]: 91 Arbitrary units
IC50 [4]: 1000 nM
pIC50 [9]: 5.23
Stability (Arbitrary units) Mouse 6 h ([5]; mouse plasma, 6 h): 108 Arbitrary units
Stability (Arbitrary units) Mouse 24 h ([5]; mouse plasma, 24 h): 82 Arbitrary units
Stability (Arbitrary units) Rat 6 h ([6]; rat plasma, 6 h): 83 Arbitrary units
Stability (Arbitrary units) Rat 24 h ([6]; rat plasma, 24 h): 45 Arbitrary units
Stability (Arbitrary units) Cath D 4 h [7]: 106 Arbitrary units

CC[C@H](C)[C@H](NC(=O)CNC(=O)[C@@H](NC(=O)[C@H](Cc1ccccc1)NC(=O)[C@H](CC(C)C)NC(=O)[C@H](CO)NC(=O)[C@H](CC(N)=O)NC(=O)[C@H](C)NC(=O)[C@H](CCCCN)NC(=O)[C@@H](NC(=O)[C@H](Cc1ccc(O)cc1)NC(=O)[C@@H](N)CCC(N)=O)[C@@H](C)CC)[C@@H](C)CC)C(=O)N[C@H](C(=O)N[C@@H](CCC(=O)O)C(=O)N[C@@H](CC(C)C)C(=O)N[C@@H](CCCCN)C(=O)O)[C@@H](C)O [reference compound] (H-QYIKANSLFIGITELK-OH; N-terminus and C-terminus assumed)
degradation by Cathepsin D [7, 11]: completely degraded

CSCC[C@H](NC(=O)[C@@H]1Cc2ccccc2CN1C(=O)[C@H](CCCNC(=N)N)NC(=O)[C@H](CC1CCCCC1)NC(C)=O)C(=O)N(CCOCCO)Cc1ccccc1 [Compound P99, Ac-Cha-Arg-Tic-Met-N(Bn)CH2CH2OCH2CH2OH] (Ac-[Cha]R[Tic]M-X2)
IC50 [1, 10]: 1900 nM
Immunsupressive assays DR14-LN (Max) % Inhibition [8]: 100%
pIC50 [8]: 3.98
Stability (Arbitrary units) Human 6 h [2]: 104 Arbitrary units
Stability (Arbitrary units) Cath B 4 h [3]: 106 Arbitrary units
IC50 [4]: 690 nM and 560 nM
Stability (Arbitrary units) Mouse 6 h [5]: 71 Arbitrary units
Stability (Arbitrary units) Mouse 24 h [5]: 13 Arbitrary units
Stability (Arbitrary units) Rat 6 h [6]: 80 Arbitrary units
Stability (Arbitrary units) Rat 24 h [6]: 62 Arbitrary units
Stability (Arbitrary units) Cath D 4 h [7]: 107 Arbitrary units

CCCC[C@H](NC(=O)[C@@H]1Cc2ccccc2CN1C(=O)[C@H](CCCNC(=N)N)NC(=O)[C@H](CC1CCCCC1)NC(C)=O)C(=O)N(CCO)CCc1ccccc1 [Compound P81, Ac-Cha-Arg-Tic-Nle-N(CH2CH2OH)CH2CH2Ph] (Ac-[Cha]R[Tic][Nle]-X6)
IC50 [1, 10]: 20000 nM
Stability (Arbitrary units) Human 6 h [2]: 104 Arbitrary units
Stability (Arbitrary units) Human 24 h [2]: 109 Arbitrary units
Stability (Arbitrary units) Cath B 4 h [3]: 99 Arbitrary units
IC50 [4]: 3300 nM
pIC50 [9]: 4.66
Stability (Arbitrary units) Mouse 6 h [5]: 107 Arbitrary units
Stability (Arbitrary units) Mouse 24 h [5]: 70 Arbitrary units
Stability (Arbitrary units) Rat 6 h [6]: 88 Arbitrary units
Stability (Arbitrary units) Rat 24 h [6]: 76 Arbitrary units
Stability (Arbitrary units) Cath D 4 h [7]: 99 Arbitrary units

Source: US7629318B2, “Immunosuppressant compounds, methods and uses related thereto” (priority 2002, dated 2009)
